Results from article PMC4364779, “IMD-4690, a Novel Specific Inhibitor for Plasminogen Activator Inhibitor-1, Reduces Allergic Airway Remodeling in a Mouse Model of Chronic Asthma via Regulating Angiogenesis and Remodeling-Related Mediators” (PLoS ONE, 2015).

How the values were obtained:
[1] = tested on: chronic allergen exposure model of bronchial asthma in mice; experiment: Lung resistance (RL) by restrained whole body plethysmography, chronic Dp asthma model; assay type: in vivo, mouse; conditions: at 25 and 50 mg/mL of Mch, day 70, 10 mg/kg i.p., vs Dp/CMC mice
Procedure: (§1) All mice were sensitized on days 0 and 7 by intraperitoneal injections of 10 μg of Dp dissolved in 500 μL saline and mixed with 1mg of Alum (Sigma-Aldrich Japan). Dp-sensitized mice were challenged intranasally with 10 μg (10 μL) Dp in 70 μL saline on alternate days, 3 days per week, from days 14 to 67. The mice were also treated intraperitoneally with IMD-4690 (10 mg/kg) (Dp/IMD group) or CMC alone (Dp/CMC group) at the same day with Dp challenge. As a control, mice were challenged with saline and given CMC during this period (control/CMC group) (Fig. 1A). Each experiment was performed using six mice per group.
Seventy-two hours after the final challenge (day 70), lung resistance (RL) was measured by restrained whole body plethysmography (Buxco Electronics). Mice were anesthetized by 6 mg/mL 2,2,2-tribromoethanol with 2-methyl-2-butanol. Then mice were tracheostomized and cannulated with a 19-gauge tracheostomy tube, and were placed in the chamber for plethysmography and mechanically ventilated. Aerosolized β-methacholine (Mch) was administered by an in-line aerosol delivery system at different concentrations (6.25, 12.5, 25, and 50 mg/mL). After each Mch challenge, data were continuously collected, and values of RL were taken to express the changes in these functional parameters. The data were expressed as the percentage change from baseline RL obtained after inhalation of saline.

human PAI-1 = human PAI-1 (Homo sapiens, UniProt P05121); experiment: Direct tPA assay of PAI-1 activity (fluorescent substrate Pyr-Gly-Arg-MCA); assay type: biochemical; conditions: recombinant tPA and PAI-1, read-out: IC50 of human PAI-1 inhibition
Sequence of human PAI-1 (P05121 24-402): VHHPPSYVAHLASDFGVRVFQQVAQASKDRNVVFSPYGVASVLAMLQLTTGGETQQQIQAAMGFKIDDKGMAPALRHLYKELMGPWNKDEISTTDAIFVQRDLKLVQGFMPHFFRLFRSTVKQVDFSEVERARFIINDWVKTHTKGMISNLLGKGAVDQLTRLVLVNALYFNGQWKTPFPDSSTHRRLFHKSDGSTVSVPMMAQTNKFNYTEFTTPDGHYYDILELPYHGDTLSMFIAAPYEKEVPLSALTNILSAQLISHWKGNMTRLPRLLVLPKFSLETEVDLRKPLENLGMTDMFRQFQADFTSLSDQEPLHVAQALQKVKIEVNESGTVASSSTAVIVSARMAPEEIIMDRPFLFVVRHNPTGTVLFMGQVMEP
Procedure: Inhibitory effect of IMD-4690 on the activity of PAI-1 was measured by the direct tPA assay. Briefly, recombinant tPA and PAI-1 was mixed with IMD-4690, and then tPA substrate with fluorescent pigment (Pyr-Gly-Arg-MCA) was added in this mixture and incubated. The enzymatic activity was calculated by measuring the fluorescence. The inhibitory activity of IMD-4690 on other enzymes was measured with the similar method.

[2] = tested on: chronic allergen exposure model of bronchial asthma in mice; experiment: Total lung collagen (Sircol assay), chronic Dp asthma model; assay type: in vivo, mouse; conditions: day 70, 10 mg/kg i.p., vs Dp/CMC mice
Procedure: as §1
The left lungs were harvested on day 70 and used for collagen assays. Total lung collagen was determined using a Sircol Collagen Assay kit (Biocolor Ltd, Belfast, Northern Ireland) according to the manufacturer’s instructions.

[3] = tested on: chronic allergen exposure model of bronchial asthma in mice; experiment: Mediators in lung homogenates (ELISA/activity kits), chronic Dp exposure asthma model; assay type: in vivo, mouse
Procedure: as §1
The right lungs were frozen until analyzed. Frozen tissue were solubilized by homogenization in lysis buffer (Cell Signaling Technology, Inc., Danvers, Mass., USA) containing 1 tablet of Complete Protease Inhibitor Cocktail Tablets, EDTA-free (Santa Cruz Biotechnology, Inc., Santa Cruz, CA, USA), per 25 mL of buffer by using an Ultramicro homogenizer set (I.S.O.,Inc., Yokohama, Japan). Samples of the homogenate were centrifuged at 15,000 rpm for 10 min. The supernatants were stored at -80°C.
Protein concentrations were determined by the BCA method (Pierce, Rockford, IL, USA). Cytokines, growth factors, enzymes, and serum IgE were determined using commercial ELISA kits. ELISA kits and their sensitivities were as follows: IL-4, -5, -12, -13, TNF-α, IFN-γ, VEGF, TGF-β, total MMP-9, and TIMP-1 (R&D Systems, Minneapolis, MN, USA), with sensitivities of 2, 7, 2.5, 1.5, 5.1, 2, 3, 1.7, 7, and 1.4 pg/mL, respectively; active and total PAI-1 (Innovative Research Inc., Sarasota, FL, USA) with sensitivities of 20 and 32 pg/mL; active MMP-9 (MMP-9 Biotrak Activity Assay, GE Healthcare, Buckinghamshire, UK) with a sensitivity of 0.5 ng/mL; HGF (Rat HGF determination kit by EIA, Institute of Immunology Co., Ltd., Tokyo, Japan) with a sensitivity of 0.4 ng/mL; and serum IgE (ELISA mouse IgE kit, Seikagaku Biobussiness Corp., Tokyo, Japan) with a sensitivity of 0.5 ng/mL.

[4] = tested on: chronic allergen exposure model of bronchial asthma in mice; experiment: Lung histopathology and morphological analyses, chronic Dp asthma model; assay type: in vivo, mouse
Procedure: as §1
The lung tissues were harvested, fixed in 10% formalin, and embedded in paraffin. Three-micrometer-thick sections were stained with Giemsa, Periodic acid-Schiff (PAS) or Azan Mallory.
Sections of lung tissue were stained immunohistochemically to detect α-smooth muscle actin (SMA), platelet endothelial cell adhesion molecule-1 (PECAM-1)/CD31. Mouse monoclonal anti-smooth muscle (1:800) (Thermo Fisher Scientific Inc., Fremont, CA, USA), or ready-to-use mouse monoclonal CD31 (GeneTex Inc., Irvine, CA, USA) was used as a primary antibody. For immunohistochemical staining, the VECTASTAIN ABC Kit (Vector Laboratories) and the Vector M.O.M. Immunodetection Kit (Vector Laboratories) were used according to the manufacturers’ protocols. Diaminobenzidine was used as a substrate for the immunoperoxidase reaction. Sections were lightly counterstained with hematoxylin and analyzed by bright-field microscopy.
An OLYMPUS BX61 microscope (Olympus, Tokyo, Japan) with Scion Image software was used for the morphological analysis. Eosinophils were counted according to a previously described method. The thickness of subepithelial fibrosis and smooth muscle layer were analyzed as follows. The area of subepithelial fibrosis (stained blue) and smooth muscle layer (α-SMA positive) around a bronchus was measured. The average thickness was determined by the area of the positive layer divided by the length of the internal circumference of the area. The mean values for thickness were calculated for 8–10 bronchi per left lung lobe.
To quantify the microvessel density, the number of CD31-positive blood vessels per field was counted in 5 random fields in each sample.

[5] = tested on: chronic allergen exposure model of bronchial asthma in mice; experiment: BALF cell classification, chronic Dp asthma model; assay type: in vivo, mouse; conditions: 10 mg/kg i.p., vs Dp/CMC mice
Procedure: as §1
After measurement of lung resistance, the mice were euthanized humanely by cutting the axillary artery to obtain serum samples. Following sacrifice, bronchoalveolar lavage was performed twice with saline (0.8 mL) by using a soft cannula. After counting the cell numbers in the BALF using the automated cell viability analyzer Vi-Cell (Beckman Coulter, Calif., USA), BALF samples were cytospun onto glass slides and stained with Diff-Quick (Baxter, Miami, Fla., USA) for classification.

[6] = BALB/c mice, Dp challenge 8 weeks, 10 mg/kg i.p., vs Dp/CMC mice
[7] = Dp/IMD mice (10 mg/kg i.p.) vs Dp/CMC mice
[8] = ELISA, 10 mg/kg i.p., vs Dp/CMC mice

Which “Airway resistance (RL)” value [1] does the source give for CC(C)(C)c1ccc(Oc2cc(-c3ccc(OC(F)(F)F)cc3)ccc2OCC(=O)O)cc1 [IMD-4690, 2-[[3-(4-tert-Butylphenoxy)-4'-(trifluoromethoxy) [1,1'-biphenyl]-4-yl]oxy] acetic acid] here?
The value was “significantly reduced”.

And the IC50 (human PAI-1)?
Its IC50 is 1.1 µM.

And the “Total collagen in the lungs” value [2]?
Its value is “reduced”.

What about the “IFN-γ production in lung homogenates” value ([3]; 10 mg/kg i.p., vs Dp/CMC mice) of the same compound?
Its value is “inhibited”.

And the “IL-4 level in lung homogenates” value ([3]; 10 mg/kg i.p., vs Dp/CMC mice)?
Its value is “significantly decreased”.

And the “IL-5 level in lung homogenates” value ([3]; 10 mg/kg i.p., vs Dp/CMC mice)?
The value was “significantly decreased”.

What about the “IL-13 level in lung homogenates” value ([3]; 10 mg/kg i.p., vs Dp/CMC mice) of the same compound?
Its value is “significantly decreased”.

What about the “Ratio of active MMP-9/TIMP-1 in lung homogenates” value ([3]; 10 mg/kg i.p., vs Dp/CMC mice) of the same compound?
Its value is “significantly restored”.

And the “TNF-α production in lung homogenates” value ([3]; 10 mg/kg i.p., vs Dp/CMC mice)?
Its value is “inhibited”.

And the “Level of active PAI-1 in lung homogenates” value [3, 6]?
Its value is “significantly reduced”.

And the “Level of total PAI-1 in lung homogenates” value [3, 6]?
The value was “significantly reduced”.

What about the “HGF levels in lung homogenates” value [3, 7] of the same compound?
Its value is “significantly higher”.

And the “Proportion of active PAI-1 as a percentage of the total PAI-1 in lung homogenates” value [3, 7]?
Its value is “significantly lower”.

What about the “Active form of TGF-β1 in lung homogenates” value [3, 8] of the same compound?
Its value is “significantly reduced”.

What about the “Total MMP-9 levels in lung homogenates” value [3, 8] of the same compound?
The value was “tended to decrease the total MMP-9 levels, although no significant differences were observed”.

What about the “VEGF concentration in lung homogenates and BALF” value [3, 8] of the same compound?
Its value is “significantly reduced”.

What about the “Subepithelial thickness (subepithelial fibrosis)” value ([4]; Azan-Mallory sections, Dp/IMD mice 10 mg/kg i.p.) of the same compound?
The value was “significantly decreased”.

What about the “Vascular density (CD31-positive blood vessels)” value ([4]; CD31 immunohistochemistry, 10 mg/kg i.p.) of the same compound?
The value was “significantly decreased”.

And the “Number of infiltrating eosinophils in the subepithelium” value ([4]; Giemsa-stained lung sections, 10 mg/kg i.p., vs Dp/CMC mice)?
Its value is “significantly decreased”.

What about the “Number of PAS-positive cells (mucous metaplasia)” value ([4]; PAS staining of lungs, 10 mg/kg i.p., vs Dp/CMC mice) of the same compound?
Its value is “decreased”.

What about the “Subepithelial smooth muscle thickness” value ([4]; α-SMA immunohistochemistry, 10 mg/kg i.p.) of the same compound?
The value was “significant reduction”.

What about the “Number of eosinophils in BALF” value [5] of the same compound?
Its value is “significantly decreased”.

And the “Number of lymphocytes in BALF” value [5]?
The value was “significantly decreased”.
